Laboratory results as given in patent US20060014704A1, “Compounds and their preparation for the treatment of Alzheimer's disease by inhibiting beta-amyloid peptide production” (priority 2004, published 2006).
Like-named read-outs stand apart in the source and are kept apart here.

Key:
[1] = tested on: Aβ40 and Aβ42 generation, Neuro2a-SW cells; test: Aβ generation in Neuro2a cells expressing human Swedish mutant APP (Neuro2a-SW); assay type: cell-based, mouse; settings: FIG. 16
From the text: FIG. 16 depicts the effects of two major metabolites of ginsenosides, including 20(S)-protopanaxatriol (PPT) and 20(S)-protopanaxadiol (PPD) on Aβ42 generation. 20(S)-panaxatriol (PT) and 20(S)-panaxadiol (PD) are the artificial derivatives of PPT and PPPD, respectively.
Ginsenosides are metabolized by human intestinal bacteria after oral administration of ginseng extract (Kobayashi K., et al., Metabolism of ginsenoside by human intestinal bacteria [II] Ginseng Review 1994; 18: 10-14; Hasegawa H., et al., Main ginseng saponin metabolites formed by intestinal bacteria. Planta Med. 1996; 62: 453-457.). Therefore, the effects of two major metabolites of ginsenosides, including 20(S)-protopanaxatriol (PPT) and 20(S)-protopanaxadiol (PPD) on Aβ42 generation were tested. 20(S)-panaxatriol (PT) and 20(S)-panaxadiol (PD) are the artificial derivatives of PPT and PPPD, respectively.

[2] = tested on: Aβ40 and Aβ42 production, CHO cells stably transfected with human APP695; test: Secreted Aβ40/Aβ42 ELISA in CHO cells expressing human APP (CHO-APP cells); assay type: cell-based, Chinese hamster; parameters: key to Aβ42-lowering activity: Aβ42-lowering activity (“Yes”); no profound effects (“No”); non-determined (“ND”); Ginsenosides that affected cell viability are indicated as “Cytotoxic.”; settings: for Aβ42-lowering activity: summary of Tables 1-3
Procedure: The CHO cells were treated with the indicated compounds (at 50 μg/ml) for 8 hrs. Aβ42 levels in the medium were measured by ELISA and normalized to intracellular full-length APP.
The potential effects of ginsenosides and their analogues in treating AD were examined. First, a number of ginsenosides were screened based on their effects on Aβ generation. The effects of various ginsenosides on Aβ (e.g., Aβ40 and Aβ42) production was initially accessed by incubating the Chinese hamster ovary (CHO) cells expressing human APP(CHO-APP cells) with each ginsenoside purified from unprocessed ginseng (known as “white ginseng”). These representative ginsenosides included Rb1, Rb2, Rc, Rd, Re, Re, Rg1 and Rg2 and differ in their side chains and sugar moieties.
After 8 hours of incubation, the media were collected and the levels of secreted Aβ40 and Aβ42 were determined by ELISA.

[3] = biological target: T1, γ-secretase cleavage of APP (AICD) (Homo sapiens, UniProt P49768); test: Cell-free generation of AICD from membrane fractions of 293 cells overexpressing APP; assay type: biochemical
T1 construct: Membrane fractions isolated from 293 cells overexpressing either APP (A), Notch-AE (B) or p75-AE (C); endogenous in cells; host or cells: 293 cells (membrane fractions); only the substrates APP, Notch-ΔE and p75-ΔE are overexpressed
Procedure: (§1) Membrane fractions isolated from 293 cells overexpressing either APP (A), Notch-AE (B) or p75-AE (C) and incubated in the presence of indicated compounds: Compound E (CpdE, general γ-secretase inhibitor), Rgk351, Rk1 and sulindac sulfide (SS).

[4] = biological target: T2, γ-secretase cleavage of p75 neurotrophin receptor (p75-ICD) (Homo sapiens, UniProt P49768); test: Cell-free generation of p75-ICD from membrane fractions of 293 cells overexpressing p75-AE; assay type: biochemical
T2 construct: Membrane fractions isolated from 293 cells overexpressing either APP (A), Notch-AE (B) or p75-AE (C); endogenous in cells; host or cells: 293 cells (membrane fractions); only the substrates APP, Notch-ΔE and p75-ΔE are overexpressed
Procedure: as §1

[5] = biological target: T3, γ-secretase cleavage of Notch1 (NICD) (Homo sapiens, UniProt P49768); test: Cell-free generation of NICD from membrane fractions of 293 cells overexpressing Notch-AE; assay type: biochemical
T3 construct: Membrane fractions isolated from 293 cells overexpressing either APP (A), Notch-AE (B) or p75-AE (C); endogenous in cells; host or cells: 293 cells (membrane fractions); only the substrates APP, Notch-ΔE and p75-ΔE are overexpressed
Procedure: as §1

[6] = tested on: Aβ42 production in mammalian cells; settings: Tae-Wan Kim et al.; cited from earlier work
[7] = CHO cells expressing wild-type human APP, PPT/PT
[8] = ginsenosides of unprocessed ginseng, 8 hours, FIG. 10 (50 μM)

## CC(C)=CCC[C@](C)(O)[C@H]1CC[C@]2(C)[C@@H]1[C@H](O)C[C@@H]1[C@@]3(C)CC[C@H](O)C(C)(C)[C@@H]3[C@@H](O)C[C@]12C [PPT, 20(S)-protopanaxatriol]
[1]; Neuro2a-SW
  levels of Aβ42: without affecting
  production of Aβ42: reduced the production of Aβ42
[2]; [7]
  levels of Aβ42: without affecting
  production of Aβ42: reduced the production of Aβ42
[2]
  Aβ42-lowering activity: Yes

## C[C@H](NC(=O)Cc1cc(F)cc(F)c1)C(=O)N[C@H]1N=C(c2ccccc2)c2ccccc2N(C)C1=O [Compound E]
[3]
  cell-free generation of AICD: efficiently inhibited
[3]; listed as Cpd.E
  cell-free generation of AICD: Very low amounts
[4]
  cell-free generation of p75-ICD: efficiently inhibited
[4]; listed as Cpd.E
  cell-free generation of p75-ICD: Very low amounts
[5]
  cell-free generation of NICD: efficiently inhibited
[5]; listed as Cpd.E
  cell-free generation of NICD: Very low amounts

## CC(C)=CCC[C@](C)(O)[C@H]1CC[C@]2(C)[C@@H]1[C@H](O)C[C@@H]1[C@@]3(C)CC[C@H](O)C(C)(C)[C@@H]3CC[C@]12C [PPD, 20(S)-protopanaxadiol]
[1]
  inhibitory effects on Aβ40 generation: did not confer any inhibitory effects
  inhibitory effects on Aβ42 generation: did not confer any inhibitory effects
[2]
  Aβ42-lowering activity: No

## CC(C)=CCC[C@](C)(O[C@@H]1O[C@H](CO)[C@@H](O)[C@H](O)[C@H]1O)[C@H]1CC[C@]2(C)[C@@H]1[C@H](O)C[C@@H]1[C@@]3(C)CC[C@H](O)C(C)(C)[C@@H]3[C@@H](O[C@@H]3O[C@H](CO)[C@@H](O)[C@H](O)[C@H]3O)C[C@]12C [Rg1]
[2]; [8]
  inhibitory effects on Aβ40 production: None
  inhibitory effects on Aβ42 production: None
[2]
  Aβ42-lowering activity: No
[6]
  amyloid-reducing activity in vitro: no amyloid-reducing activity in vitro
